Assay results: patent EP2364976B1, “S1P receptor modulating compounds and use thereof” (EPIX Pharmaceuticals, Inc., priority 2007, dated 2007)
“And” between values parts separate entries of the source, which are not always exact repeats. Identical values can stand only once.

Biological target: T1, hS1P1 (Homo sapiens, UniProt P21453)
T1 construct: expressed in transfected cells
Test: hS1P1 EC50 (S1P receptor Ca2+ flux protocol, FLIPR, CHO K1 Gqi5 cells)
Assay type: cell-based
Settings: several values per compound = repeat determinations as printed
Protocol: S1P receptor activity may also be measured by an SIP receptor (e.g., hS1P1, hS1P3, rS1P1, rS1P3 and parental cell) Ca^2+ Flux protocol as described below: • 1. Material • a. FLIPR buffer: 1x HBSS; 10mM HEPES • b. Cell growth media: • i. human and rat S1P1 and S1P3: F12-Ham's media; 10% FBS (qualified); 1x Pen/Strep/Glu; 300ug/mL Hygromycin; 400ug/mL Geneticin ii. Parental cell: human and rat S1P and S1P3: F12-Ham's media; 10% FBS (qualified); 1x Pen/Strep/Glu; 300ug/mL Hygromycin; • c. Cell seeding media; F12-Ham's media; 10% FBS (Charcoal/dextran stripped); 1x Pen/Strep/Glu; • d. Cell dissociation buffer: Versene from Invitrogen • e. Agonist (SIP) dissolving buffer: 0.4% (w/v) fatty-acid free BSA (Sigma # A8806) in FLIPR buffer • f. FLIPR dye: BD PBX Calcium assay kit; Cat#641077 is composed of Calcium indicator (Cat#850000) and 100x PBX signal enhancer (cat#850001). The 100x PBX signal enhancer is diluted into FLIPR buffer 1:100 and the calcium indicator is then added at 1:1000 ratio. • g. Cell plates (96-well): Greiner Cat#655090 • h. Compound plates (96-well): Costar #3365 • i. S1P stock solution preparation: S1P is purchased from CalBioChem (Catalog # 970471; 1mg vial; custom prep using methanol, & nitrogen gas drying inside glass vial; Storage @ -20°C). Dissolve 1 vial of SIP into 26.4ml of agonist dissolving buffer in a 50ml centrifuge tube; Remove label from bottle of SIP, open and drop entire bottle into tube. Sonicate at 37° for ½ hour. Clear solution of 100µM will result. This stock solution is aliquoted and stored at -80C • 2. Cell line maintenance • a. V5 tags were added at the N-terminus of hS1P1, hS1P3, rS1P1 and rS1P3. All four genes were transfected into CHO K1 cells which stably express Gqi5. • b. hS1P1 and hS1P3 were established as stable clones and rS1P1 and rS1P3 were sorted by anti V5 tag and established as stable pools after sorting. • c. Parental cell line CHO/K1 Gqi5 is used as the control. • d. All the cells are maintained in cell growth media and splitted twice a week using Versene. • e. All the cell lines are used under passage 30. • 3. Assay protocol • a. Cell seeding: Cells are lifted from the flask by Versene and seeded in cell plates at 50K/well in cell seeding media. Cells are grown overnight at 37 degree. • b. Cell loading: Cell seeding media is discarded. Cells are loaded with 50ul of FLIPR dye at RT for 90 min. Signal is stable for up to 5 h after dye loading. • c. Agonist (S1P) preparation: Frozen stock of S1P is thawed out and sonicated at 37c for 30 minutes every time before use. The stock is then diluted into FLIPR buffer at proper concentration. • d. Compound preparation: Compounds are dissolved in DMSO. A 3x, 10 point dilution of the compounds are carried out in DMSO. Then the compounds are diluted into assay buffer133x so that the DMSO concentration is 0.75%. • e. Activity measurement: The fluorescence signal change of the cells upon compound addition is monitored in FLIPRtetra. 25ul of compound is transferred into the cell plates (50ul of FLIPR dye; DMSO concentration: 0.25%). Signal is recorded for 90sec after compound addition. Then 50ul of 500nM SIP is added in the cell plate, and signal is recorded for 90 seconds upon addition. • 4. Data analysis • a. Peak value is calculated for each compound/S1P addition • b. The peak value of S1P at 200nM is used as high control (100%), and the peak value of buffer only is used as low control (0%). • c. Data is normalized against high and low controls using the following equation: POC_S = 100*(RAW-LO)/(HI-LO) [formula] • d. Peak value is plotted against the concentration of compound. • e. Curve is fitted using the 4 parameter fit: Y = (A+(B/(1+(((x/C))^(∧)D)))) [formula] where: Y is POC_S (or POC) • X is compound concentration • A is the minimum (EC50min or IC50min) • B is the maxmum (EC50max or IC50max) • C is the inflection point (EC50IP or IC50IP) • D is the hill slope (EC50 slope or IC50 slope).

T1 sequence (P21453 whole entry): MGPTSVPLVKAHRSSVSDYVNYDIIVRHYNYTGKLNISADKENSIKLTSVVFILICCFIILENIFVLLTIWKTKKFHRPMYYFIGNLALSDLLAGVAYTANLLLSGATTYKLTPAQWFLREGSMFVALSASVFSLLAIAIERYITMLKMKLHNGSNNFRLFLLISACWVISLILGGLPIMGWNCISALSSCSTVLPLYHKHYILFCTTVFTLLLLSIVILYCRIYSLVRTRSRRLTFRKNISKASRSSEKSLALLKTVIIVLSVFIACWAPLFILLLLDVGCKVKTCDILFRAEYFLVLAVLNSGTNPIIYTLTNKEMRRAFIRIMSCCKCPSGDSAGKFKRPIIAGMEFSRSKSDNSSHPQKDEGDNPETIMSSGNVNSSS

| SMILES | EC50 |
| --- | --- |
| O=C(O)C1CN(Cc2ccc(-c3cc4cc(Sc5ccccc5)ccc4o3)c(F)c2)C1 [Reference Compound 64] | 142 nM |
| O=C(O)C1CN(Cc2ccc(-c3cc4cc(C(F)(F)c5ccccc5)ccc4o3)c(F)c2)C1 [Reference Compound 91, 1-((4-(5-(Difluoro(phenyl)methyl)benzofuran-2-yl)-3-fluorophenyl)methyl)azetidine-3-carboxylic acid] | 13 nM |
| O=C(O)C1CN(Cc2ccc(-c3cc4cc(Cc5nccs5)ccc4o3)c(F)c2)C1 [Reference Compound 94, 1-((3-Fluoro-4-(5-(thiazol-2-ylmethyl)benzofuran-2-yl)phenyl)methyl)azetidine-3-carboxylic acid] | 76 nM |
| O=C(O)CCNC1Cc2ccc(-c3cc4cc(Cc5ccccc5)ccc4o3)cc2C1 (stereo not shown) [Reference Compound 45, 3-(5-(5-benzylbenzofuran-2-yl)-2,3-dihydro-1H-inden-2-ylamino)-propanoic acid] | 807 nM |
| O=C(O)C1CN(Cc2ccc(-c3cc4cc(Cc5ccccc5)ccc4o3)cc2)C1 [Reference Compound 4, 1-((4-(5-Benzylbenzofuran-2-yl)phenyl)methyl)azetidine-3-carboxylic acid] | 400 nM and 460 nM and 420 nM and 107 nM |
| CCCCc1ccc2oc(-c3ccc(CN4CC(C(=O)O)C4)cc3)cc2c1 [Reference Compound 2, 1-((4-(5-Butylbenzofuran-2-yl)phenyl)methyl)azetidine-3-carboxylic acid] | 200 nM and 510 nM and 867 nM |
| NC(=O)CC(NCc1ccc(-c2cc3cc(Cc4ccccc4)ccc3o2)c(F)c1)C(=O)O (stereo not shown) [Reference Compound 83, 4-Amino-2-(4-(5-benzylbenzofuran-2-yl)-3-fluorobenzylamino)-4-oxobutanoic acid] | 2300 nM |
| O=C(O)CCN1CCc2cc(-c3cc4cc(Cc5ccccc5)ccc4o3)ccc2C1 [Reference Compound 29, 3-(6-(5-benzylbenzofuran-2-yl)-3,4-dihydroisoquinolin-2(1H)-yl)propanoic acid] | 160 nM and 261 nM |
| O=C(O)C1CN(Cc2ccc(-c3cc4cc(Cc5ccccc5)ccc4o3)cc2F)C1 [Reference Compound 14, 1-((4-(5-Benzylbenzofuran-2-yl)2-fluorophenyl)methyl)azetidine-3-carboxylic acid] | 620 nM and 334 nM |
| O=C(O)C1CN(Cc2ccc(-c3cc4cc(C(=NO)c5ccccc5)ccc4o3)c(F)c2)C1 (mixture of isomers) [Reference Compound 103, (E/Z)-1-((3-Fluoro-4-(5-((hydroxyimino)(phenyl)methyl)benzofuran-2-yl)phenyl)methyl)azetidine-3-carboxylic acid] | 16 nM |
| O=C(O)C1CN(Cc2ccc(-c3cc4cc(Cc5ccccc5)ccc4o3)c(F)c2)C1 [Reference Compound 15, 1-((4-(5-Benzylbenzofuran-2-yl)-3-fluorophenyl)methyl)azetidine-3-carboxylic acid] | 160 nM and 38 nM |
| O=C(O)C1CN(Cc2cnc(-c3cc4cc(Cc5ccccc5)ccc4o3)nc2)C1 [Reference Compound 121, 1-((2-(5-Benzylbenzofuran-2-yl)pyrimidin-5-yl)methyl)azetidine-3-carboxylic acid] | 1320 nM |
| Fc1cc(CN2CC(c3nn[nH]n3)C2)ccc1-c1cc2cc(Cc3ccccc3)ccc2o1 [Reference Compound 78, 5-(1-(4-(5-Benzylbenzofuran-2-yl)-3-fluorobenzyl)azetidin-3-yl)-2H-tetrazole] | 2090 nM |
| COc1cc(CN2CC(C(=O)O)C2)ccc1-c1cc2cc(Cc3ccccc3)ccc2o1 [Reference Compound 33, 1-((4-(5-benzylbenzofuran-2-yl)-3-methoxyphenyl)methyl)azetidine-3-carboxylic acid] | 1000 nM and 1900 nM and 196 nM |
| O=C(O)C1CN(Cc2ccc(-c3cc4cc(C5CCOCC5)ccc4o3)c(F)c2)C1 [Reference Compound 61] | 207 nM |
| O=C(O)C1CN(Cc2ccc(-c3cc4cc(N5CCOCC5)ccc4o3)c(F)c2)C1 [Reference Compound 53, 1-((3-fluoro-4-(5-morpholinobenzofuran-2-yl)phenyl)methyl)azetidine-3-carboxylic acid] | 2090 nM |
| O=C(O)C1CN(Cc2ccc(-c3cc4cc(Cc5ccccc5)nc(Cl)c4o3)c(F)c2)C1 [Reference Compound 107, 1-((4-(5-Benzyl-7-chlorofuro[2,3-c]pyridin-2-yl)-3-fluorophenyl)methyl)azetidine-3-carboxylic acid] | 2580 nM |
| O=C(O)C1CN(Cc2ccc(-c3nc4cc(Oc5ccccc5)ccc4o3)c(F)c2)C1 [Reference Compound 116, 1-((3-Fluoro-4-(5-phenoxybenzo[d]oxazol-2-yl)phenyl)methyl)azetidine-3-carboxylic acid] | 12 nM |
| Cc1ccc(Cc2ccc3oc(-c4ccc(CN5CC(C(=O)O)C5)cc4F)cc3c2)cc1 [Reference Compound 86, 1-(3-Fluoro-4-(5-(4-methylbenzyl)benzofuran-2-yl)benzyl)azetidine-3-carboxylic acid] | 12 nM |
| O=C(O)C1CN(Cc2ccc(-c3nc4cc(Sc5ccccc5)ccc4o3)c(F)c2)C1 [Inventive Compound 117, 1-((3-Fluoro-4-(5-(phenylthio)benzo[d]oxazol-2-yl)phenyl)methyl)azetidine-3-carboxylic acid] | 3 nM |
| O=C(O)C1CN(Cc2ccc(-c3cc4cc(Cc5ccccc5)ccc4[nH]3)c(F)c2)C1 [Reference Compound 99, 1-((3-Fluoro-4-(5-(phenylmethyl)-1H-indol-2-yl)phenyl)methyl)-3-azetidinecarboxylic acid] | 1340 nM |
| O=C(O)C1CN(Cc2ccc(-c3cc4cc(COC5CCC5)ccc4o3)c(F)c2)C1 [Reference Compound 67, 1-(4-(5-(Cyclobutoxymethyl)benzofuran-2-yl)-3-fluoro-benzyl)azetidine-3-carboxylic acid] | 25 nM |
| O=C(O)C1CN(Cc2ccc(-c3cc4cc(Cc5ccccc5)ccc4o3)c(F)c2)CCO1 (stereo not shown) [Reference Compound 54, 4-((4-(5-benzylbenzofuran-2-yl)-3-fluorophenyl)methyl)morpholine-2-carboxylic acid] | 1860 nM |
| O=C(O)C1CN(Cc2ccc(-c3nc4cc(Cc5ccccc5)ccc4s3)c(F)c2)C1 [Inventive Compound 114, 1-((4-(5-Benzylbenzo[d]thiazol-2-yl)-3-fluorophenyl)methyl)azetidine-3-carboxylic acid] | 29 nM |
| O=C(O)C1CN(Cc2ccc(-c3cc4cc(Cc5ccccc5)ccc4s3)c(F)c2)C1 [Reference Compound 81, 1-(4-(5-Benzylbenzo[b]thiophen-2-yl)-3-fluorobenzyl)azetidine-3-carboxylic acid] | 11 nM |
| O=C(O)C1CN(Cc2ccc(-c3cc4ccccc4o3)c(F)c2)C1 [Reference Compound 68, 1-(4-(benzofuran-2-yl)-3-fluoro-benzyl)azetidine-3-carboxylic acid] | 706 nM |
| CCCCOc1ccc2oc(-c3ccc(CN4CCC(C(=O)O)CC4)cc3)cc2c1 [Reference Compound 16] | 17000 nM |
| O=C(O)C1CN(Cc2ccc(-n3cc4cc(Cc5ccccc5)ccc4n3)c(F)c2)C1 [Reference Compound 87, 1-(4-(5-Benzyl-2H-indazol-2-yl)-3-fluorobenzyl)azetidine-3-carboxylic acid] | 94 nM |
